≈ marks a conversion by molar mass, not a printed value.
Experiments:
coliform organisms [1] = assay: Sterilization test of treated drainage from marine product processing (Example 2); assay type: cell-based; details: for Coliform organism count: marine product processing drainage (initial 320000 CFU/mL)
Method: Drainage from the marine product processing industry was subjected to coagulation, pressurization, floating, and separation. Then, the drainage was further treated by an activated sludge process. The resulting drainage was used as water to be treated. A sterilization test of this water to be treated was conducted, with the concentration of a disinfectant being varied. [table]

coliform organisms [2] = assay: Sterilization test of coliform organisms in treated sewage (Example 1); assay type: cell-based; details: for Coliform organism count: treated sewage (initial 12600 CFU/mL)
Method: Treated sewage containing coliform organisms, as water to be treated, was subjected to a sterilization test. As a disinfectant, each of 1-bromo-3-chloro-5,5-dimethylhydantoin (hereinafter referred to as BCDMH) (Example 1) and sodium hypochlorite (Comparative Example 1) was used. The sterilization test of coliform organisms was conducted, with the concentration of the disinfectant being varied.
In the present specification, the proportion of the disinfectant added is expressed as active chlorine for each of the bromine-based disinfectant and the chlorine-based disinfectant, and is expressed as “mg/L as Cl” calculated as the active chlorine concentration. For example, when 1 g of BCDMH is added to 1 liter of drainage, its concentration is 540 mg/L as Cl.

coliform organisms [3] = assay: Disinfection of wet-weather sewage by the system of FIGS. 1 to 3 (Example 3), coliform organism count; assay type: cell-based
Method: Examples of the present invention will now be described, but the invention is not restricted thereby. Drainage was treated by the system show in FIGS. 1 to 3. In all of RUN 1 to RUN 4, the amount of the disinfectant being 0 (zero) corresponds to the incoming water quality of wet-weather sewage which has flowed into rainwater removal facilities.

aquatic organisms = details: calculated as active chlorine (Cl2); aquatic organisms in public waters; cited from earlier work
[4] = disinfectant added 2.0 mg/L as Cl

`OCl` [Sodium hypochlorite, sodium hypochlorite, reference compound] showed a Coliform organism count (coliform organisms [1]; disinfectant added 6 mg/L as C1) of 135000 CFU/mL, a Coliform organism count (coliform organisms [1]; disinfectant added 8 mg/L as C1) of 1900 CFU/mL and a Coliform organism count (coliform organisms [1]; disinfectant added 10 mg/L as C1) of 900 CFU/mL. For the same compound, the Coliform organism count (coliform organisms [1]; disinfectant added 12 mg/L as C1) was “Not detected”, the Coliform organism count (coliform organisms [2]; [4]) was 11800 CFU/mL and the Coliform organism count (coliform organisms [2]; disinfectant added 2.5 mg/L as Cl) was 2800 CFU/mL. The Coliform organism count (coliform organisms [2]; disinfectant added 3.0 mg/L as Cl) was 300 CFU/mL, the Coliform organism count (coliform organisms [2]; disinfectant added 3.5 mg/L as Cl) was “Not detected” and the “reaction time to show sufficient effect” value (coliform organisms [2]; treated sewage, Example 1) was “more than 5 minute”. For the same compound, the Coliform organism count (coliform organisms [3]; RUN 4, sewage 250 m^3/h (incoming 46 × 10^3), amount added 30 mg/l as chlorine (Cl2)) was 19 × 10^3 CFU/ml, the Coliform organism count (coliform organisms [3]; RUN 4, sewage 250 m^3/h (incoming 46 × 10^3), amount added 60 mg/l as chlorine (Cl2)) was > 3,000 CFU/ml and the Coliform organism count (coliform organisms [3]; RUN 4, sewage 250 m^3/h (incoming 46 × 10^3), amount added 60 mg/l as chlorine (Cl2), listed as B) was 41 × 10^2 CFU/ml.

With `CC1(C)C(=O)N(Cl)C(=O)N1Br` [BCDMH, 1-bromo-3-chloro-5,5-dimethylhydantoin] the Coliform organism count (coliform organisms [1]; disinfectant added 2.0 mg/L as C1) was 52000 CFU/mL, the Coliform organism count (coliform organisms [1]; disinfectant added 3.0 mg/L as C1) was 1200 CFU/mL and the Coliform organism count (coliform organisms [1]; disinfectant added 3.5 mg/L as C1) was “Not detected”. For the same compound, the “concentration exhibiting germicidal effect relative to the concentration of sodium hypochlorite” value (coliform organisms [1]; marine product processing drainage, Example 2) was “⅓”, the LC50 (aquatic organisms) was 0.4 mg/L (≈ 1.66 µM) and the Coliform organism count (coliform organisms [2]; disinfectant added 0.5 mg/L as Cl) was 10800 CFU/mL. For the same compound, the Coliform organism count (coliform organisms [2]; disinfectant added 1.5 mg/L as Cl) was 70 CFU/mL, the Coliform organism count (coliform organisms [2]; [4]) was “Not detected” and the “concentration exhibiting germicidal effect relative to the concentration of sodium hypochlorite” value (coliform organisms [2]; treated sewage, Example 1) was “a half or less”. For the same compound, the “reaction time to show sufficient effect” value (coliform organisms [2]; treated sewage, Example 1) was 1 min, the Coliform organism count (coliform organisms [3]; RUN 1, sewage 120 m^3/h (incoming 97 × 10^3), amount added 6.0 mg/l as chlorine (Cl2)) was 83 × 10^2 CFU/ml and the Coliform organism count (coliform organisms [3]; RUN 1, sewage 120 m^3/h (incoming 97 × 10^3), amount added 12.0 mg/l as chlorine (Cl2)) was “less than 3,000 CFU/ml”. For the same compound, the Coliform organism count (coliform organisms [3]; RUN 2, sewage 250 m^3/h (incoming 68 × 10^3), amount added 5.0 mg/l as chlorine (Cl2)) was “less than 3,000 CFU/ml”, the Coliform organism count (coliform organisms [3]; RUN 2, sewage 250 m^3/h (incoming 68 × 10^3), amount added 5.0 mg/l as chlorine (Cl2), listed as A) was 18 × 10^2 CFU/ml and the Coliform organism count (coliform organisms [3]; RUN 2, sewage 250 m^3/h (incoming 68 × 10^3), amount added 10.0 mg/l as chlorine (Cl2)) was 20 or less CFU/ml. For the same compound, the Coliform organism count (coliform organisms [3]; RUN 3, sewage 530 m^3/h (incoming 39 × 10^3), amount added 3.0 mg/l as chlorine (Cl2)) was 28 × 10^2 CFU/ml and the “duration of contact with combined sewer overflow for appropriate disinfection” value (coliform organisms [3]; RUN 3, sewage 530 m^3/hour, amount added 3 to 4.5 mg/l) was “about 50 seconds”.

Reference: US6562244B1, “Method and apparatus for disinfecting drainage” (Ebara Corporation, priority 1998, dated 2003)
